In patent US12281108B2, “Pyrrolidinone derivatives as formyl peptide 2 receptor agonists” (BRISTOL-MYERS SQUIBB COMPANY, priority 2018, dated 2025) one finds EC50 data, which are given here for 20 compounds.

The assay concerns the target T1, human FPR2 receptors (Homo sapiens, UniProt P25090).
T1 sequence (P25090 1-351): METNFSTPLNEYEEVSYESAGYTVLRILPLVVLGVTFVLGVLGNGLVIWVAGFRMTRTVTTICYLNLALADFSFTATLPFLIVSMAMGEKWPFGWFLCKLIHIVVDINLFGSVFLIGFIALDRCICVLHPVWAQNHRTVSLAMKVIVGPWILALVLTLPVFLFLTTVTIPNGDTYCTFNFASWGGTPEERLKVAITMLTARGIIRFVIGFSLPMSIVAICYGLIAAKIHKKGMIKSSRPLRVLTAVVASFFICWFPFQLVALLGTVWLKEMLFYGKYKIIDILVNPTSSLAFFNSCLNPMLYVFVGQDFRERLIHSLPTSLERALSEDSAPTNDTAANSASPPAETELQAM
Kind of assay: FPR2 cAMP assay in CHO cells overexpressing human FPR2 (HTRF). As to conditions: hFPR2 assay; potency bins; read-out: hFPR2 agonist activity EC50. The format is cell-based. An excerpt:
N-formyl peptide receptors (FPRs) are a family of chemo attractant receptors that facilitate leukocyte response during inflammation. FPRs belong to the seven-transmembrane G protein-coupled receptor superfamily and are linked to inhibitory G-proteins (Gi). Three family members (FPR1, FPR2 and FPR3) have been identified in humans and are predominantly found in myeloid cells with varied distribution and have also been reported in multiple organs and tissues. After agonist binding, the FPRs activate a multitude of physiological pathways, such as intra cellular signaling transduction, Ca^2+ mobilization and transcription. The family interacts with a diverse set of ligands that includes proteins, polypeptides and fatty acid metabolites which activate both pro-inflammatory and pro-resolution downstream responses. FPR2 and FPR1 Cyclic Adenosine Monophosphate (cAMP) Assays were used to measure the in vitro activity of the compounds disclosed in this application.
FPR2 and FPR1 Cyclic Adenosine Monophosphate (cAMP) Assays. A mixture of forskolin (5 μM final for FPR2 or 10 μM final for FPR1) and IBMX (200 μM final) were added to 384-well Proxiplates (Perkin-Elmer) pre-dotted with test compounds in DMSO (1% final) at final concentrations in the range of 0.020 nM to 100 μM. Chinese Hamster Ovary cells (CHO) overexpressing human FPR1 or human FPR2 receptors were cultured in F-12 (Ham's) medium supplemented with 10% qualified FBS, 250 μg/ml zeocin and 300 μg/ml hygromycin (Life Technologies). Reactions were initiated by adding 2,000 human FPR2 cells per well or 4,000 human FPR1 cells per well in Dulbecco's PBS (with calcium and magnesium) (Life Technologies) supplemented with 0.1% BSA (Perkin-Elmer). The reaction mixtures were incubated for 30 min at room temperature. The level of intracellular cAMP was determined using the HTRF HiRange cAMP assay reagent kit (Cisbio) according to manufacturer's instruction. Solutions of cryptate conjugated anti-cAMP and d2 flurorophore-labelled cAMP were made in a supplied lysis buffer separately. Upon completion of the reaction, the cells were lysed with equal volume of the d2-cAMP solution and anti-cAMP solution. After a 1-h room temperature incubation, time-resolved fluorescence intensity was measured using the Envision (Perkin-Elmer) at 400 nm excitation and dual emission at 590 nm and 665 nm. A calibration curve was constructed with an external cAMP standard at concentrations ranging from 1 μM to 0.1 pM by plotting the fluorescent intensity ratio from 665 nm emission to the intensity from the 590 nm emission against cAMP concentrations. The potency and activity of a compound to inhibit cAMP production was then determined by fitting to a 4-parametric logistic equation from a plot of cAMP level versus compound concentrations.
(Cyclic AMP is a second messenger, typically raised through Gs and lowered through Gi signalling.)
Take `COc1cc(F)c([C@@H]2CNC(=O)[C@H]2Nc2nnc(C3CC3c3cc(F)cc(F)c3)o2)c(F)c1` (stereo partly drawn) [Example 42, (3S,4R)-4-(2,6-difluoro-4-methoxyphenyl)-3-({5-[2-(3,5-difluorophenyl)cyclopropyl]-1,3,4-oxadiazol-2-yl}amino)pyrrolidin-2-one]: the EC50 (commonly the concentration at which the effect is half-maximal) fell in the range of 40 to 150 nM.
Consider `COc1cc(F)c([C@@H]2CNC(=O)[C@H]2Nc2nnc(C3CC3c3ccccc3OC)o2)c(F)c1` (stereo partly drawn) [Example 44, (3S,4R)-4-(2,6-difluoro-4-methoxyphenyl)-3-({5-[2-(2-methoxyphenyl)cyclopropyl]-1,3,4-oxadiazol-2-yl}amino)pyrrolidin-2-one], for which the EC50 is 40 to 150 nM.
For the compound `COc1cc(F)c([C@@H]2CNC(=O)[C@H]2Nc2nnc(C3CC3c3cccc(Cl)c3)o2)c(F)c1` (stereo partly drawn) [Example 45, (3S,4R)-3-({5-[2-(3-chlorophenyl)cyclopropyl]-1,3,4-oxadiazol-2-yl}amino)-4-(2,6-difluoro-4-methoxyphenyl)pyrrolidin-2-one], the EC50 was not above 40 nM.
The result for `COc1cc(F)c([C@@H]2CNC(=O)[C@H]2Nc2nnc(C3CC3c3ccc(Cl)cc3F)o2)c(F)c1` (stereo partly drawn) [Example 46, (3S,4R)-3-({5-[2-(4-chloro-2-fluorophenyl)cyclopropyl]-1,3,4-oxadiazol-2-yl}amino)-4-(2,6-difluoro-4-methoxyphenyl)pyrrolidin-2-one] reads not above 40 nM; that for `COc1cc(F)c([C@@H]2CNC(=O)[C@H]2Nc2nnc(-c3ccc(Oc4cc(C#N)ccn4)cc3)o2)c(F)c1` [Example 48, 2-[4-(5-{[(3S,4R)-4-(2,6-difluoro-4-methoxyphenyl)-2-oxopyrrolidin-3-yl]amino}-1,3,4-oxadiazol-2-yl)phenoxy]pyridine-4-carbonitrile], 40 to 150 nM.
As to `COc1cc(F)c([C@@H]2CNC(=O)[C@H]2Nc2nnc(-c3ccc(Oc4cnccn4)cc3)o2)c(F)c1` [Example 49, (3S,4R)-4-(2,6-difluoro-4-methoxyphenyl)-3-({5-[4-(pyrazin-2-yloxy)phenyl]-1,3,4-oxadiazol-2-yl}amino)pyrrolidin-2-one], the EC50 was 40 to 150 nM.
Consider `COc1cc(F)c([C@@H]2CNC(=O)[C@H]2Nc2noc3cc(Cl)ccc23)c(F)c1` [Example 50, (3S,4R)-3-[(6-chloro-1,2-benzoxazol-3-yl)amino]-4-(2,6-difluoro-4-methoxyphenyl)pyrrolidin-2-one], for which the EC50 was not above 40 nM.
The result for `COc1cc(F)c([C@@H]2CNC(=O)[C@H]2Nc2nnc(C(=O)NCc3ccc(Cl)cc3)o2)c(F)c1` [Example 53, N-[(4-chlorophenyl)methyl]-5-{[(3S,4R)-4-(2,6-difluoro-4-methoxyphenyl)-2-oxopyrrolidin-3-yl]amino}-1,3,4-oxadiazole-2-carboxamide] reads 40 to 150 nM.
In the case of `COc1cc(F)c([C@@H]2CNC(=O)[C@H]2Nc2nnc(C(=O)NCCc3ccc(Cl)cc3)o2)c(F)c1` [Example 54, N-[2-(4-chlorophenyl)ethyl]-5-{[(3S,4R)-4-(2,6-difluoro-4-methoxyphenyl)-2-oxopyrrolidin-3-yl]amino}-1,3,4-oxadiazole-2-carboxamide], the EC50 lay within 150 to 1000 nM.
As to `COc1cc(F)c([C@@H]2CNC(=O)[C@H]2Nc2nnc(-c3ccc(Oc4ccc(Cl)cn4)cc3)o2)c(F)c1` [Example 55, (3S,4R)-3-[(5-{4-[(5-chloropyridin-2-yl)oxy]phenyl}-1,3,4-oxadiazol-2-yl)amino]-4-(2,6-difluoro-4-methoxyphenyl)pyrrolidin-2-one], the EC50 is not above 40 nM.
Regarding `COc1cc(F)c([C@@H]2CNC(=O)[C@H]2Nc2nnc(-c3ccc(Oc4ccc(C#N)cc4)cc3)o2)c(F)c1` [Example 57, 4-[4-(5-{[(3S,4R)-4-(2,6-difluoro-4-methoxyphenyl)-2-oxopyrrolidin-3-yl]amino}-1,3,4-oxadiazol-2-yl)phenoxy]benzonitrile], the EC50 is 40 to 150 nM.
In the case of `COc1cc(F)c([C@@H]2CNC(=O)[C@H]2Nc2nnc(-c3ccc(Oc4cnc(Cl)cn4)cc3)o2)c(F)c1` [Example 60, (3S,4R)-3-[(5-{4-[(5-chloropyrazin-2-yl)oxy]phenyl}-1,3,4-oxadiazol-2-yl)amino]-4-(2,6-difluoro-4-methoxyphenyl)pyrrolidin-2-one], the EC50 lay within 40 to 150 nM.
The result for `COc1cc(F)c([C@@H]2CNC(=O)[C@H]2Nc2nnc(-c3ccc(Oc4ncccc4F)cc3)o2)c(F)c1` [Example 61, (3S,4R)-4-(2,6-difluoro-4-methoxyphenyl)-3-[(5-{4-[(3-fluoropyridin-2-yl)oxy]phenyl}-1,3,4-oxadiazol-2-yl)amino]pyrrolidin-2-one] reads 40 to 150 nM; that for `COc1cc(F)c([C@@H]2CNC(=O)[C@H]2Nc2nnc(-c3ccc(Oc4cc(OC)ncn4)cc3)o2)c(F)c1` [Example 62, (3S,4R)-4-(2,6-difluoro-4-methoxyphenyl)-3-[(5-{4-[(6-methoxypyrimidin-4-yl)oxy]phenyl}-1,3,4-oxadiazol-2-yl)amino]pyrrolidin-2-one], 40 to 150 nM.
In the case of `COc1cc(F)c([C@@H]2CNC(=O)[C@H]2Nc2nnc(-c3ccc(Oc4cncc(C)n4)cc3)o2)c(F)c1` [Example 63, (3S,4R)-4-(2,6-difluoro-4-methoxyphenyl)-3-[(5-{4-[(6-methylpyrazin-2-yl)oxy]phenyl}-1,3,4-oxadiazol-2-yl)amino]pyrrolidin-2-one], the EC50 fell in the range of 40 to 150 nM.
As to `COc1cc(F)c([C@@H]2CNC(=O)[C@H]2Nc2nnc(-c3ccc(Oc4cccc(F)n4)cc3)o2)c(F)c1` [Example 64, (3S,4R)-4-(2,6-difluoro-4-methoxyphenyl)-3-[(5-{4-[(6-fluoropyridin-2-yl)oxy]phenyl}-1,3,4-oxadiazol-2-yl)amino]pyrrolidin-2-one], the EC50 was not above 40 nM.
Consider `COc1cc(F)c([C@@H]2CNC(=O)[C@H]2Nc2nnc(-c3ccc(Oc4ccc(F)cn4)cc3)o2)c(F)c1` [Example 65, (3S,4R)-4-(2,6-difluoro-4-methoxyphenyl)-3-[(5-{4-[(5-fluoropyridin-2-yl)oxy]phenyl}-1,3,4-oxadiazol-2-yl)amino]pyrrolidin-2-one], for which the EC50 was 40 to 150 nM.
`COc1cc(F)c([C@@H]2CNC(=O)[C@H]2Nc2nnc(-c3ccc(Oc4ncccc4C#N)cc3)o2)c(F)c1` [Example 66, 2-[4-(5-{[(3S,4R)-4-(2,6-difluoro-4-methoxyphenyl)-2-oxopyrrolidin-3-yl]amino}-1,3,4-oxadiazol-2-yl)phenoxy]pyridine-3-carbonitrile]: the EC50 was 40 to 150 nM.
Take `COc1cc(F)c([C@@H]2CNC(=O)[C@H]2Nc2nnc(-c3ccc(Oc4cccc(OC)n4)cc3)o2)c(F)c1` [Example 67, (3S,4R)-4-(2,6-difluoro-4-methoxyphenyl)-3-[(5-{4-[(6-methoxypyridin-2-yl)oxy]phenyl}-1,3,4-oxadiazol-2-yl)amino]pyrrolidin-2-one]: the EC50 is 150 to 1000 nM.
The result for `COc1cc(F)c([C@@H]2CNC(=O)[C@H]2Nc2nnc(-c3ccc(Oc4cc(Cl)ccn4)cc3)o2)c(F)c1` [Example 68, (3S,4R)-3-[(5-{4-[(4-chloropyridin-2-yl)oxy]phenyl}-1,3,4-oxadiazol-2-yl)amino]-4-(2,6-difluoro-4-methoxyphenyl)pyrrolidin-2-one] reads not above 40 nM.
